Laboratory results published in PMC12519824, “Fatal outcome of severe serotonin syndrome and acute respiratory distress syndrome after self-poisoning with paroxetine: a case report” (Journal of Medical Case Reports, 2025).
Where two headings read alike, the source gives them in different places.

What was measured:
[1] = Serum paroxetine level monitoring after self-poisoning; format: in vivo, human
Description: However, the exact dosage and frequency of intake were unknown. […] As no severe life-threatening serotonin syndrome symptoms were present at that point and the patient´s condition kept improving, the decision for supportive treatment was made. […] Once vv-ECMO was initiated, CytoSorb™ hemoadsorption could easily be added in an attempt to eliminate paroxetine.

[2] = cited from earlier work
[3] = indicated value of the test laboratory; ref test laboratory; cited from earlier work
[4] = Clinical course of paroxetine overdose in multidrug self-poisoning (case report); format: in vivo, human
Experimental: (§1) A person with an estimated body weight of 50 kg ingested a total amount of 3150 mg agomelatine (63 mg/kg), 4000 mg paroxetine (80 mg/kg), 8000 mg paracetamol (160 mg/kg), 5000 mg acetylsalicylic acid (100 mg/kg), 1000 mg caffeine (20 mg/kg), and 25,200 mg ibuprofen (504 mg/kg) in suicidal intent (total of 336 pills). […] The patient was reported to be on regular paroxetine therapy. However, the exact dosage and frequency of intake were unknown. […] Owing to reported paracetamol overdose, N-acetylcysteine was administered (Fig. 1) according to the regimen described by Prescott et al.. All other medication—except for paroxetine—was deemed to be no longer clinically relevant by the contacted poison information center, based on the time elapsed since ingestion. […] The patient was then transferred to our tertiary care institution for specialized ARDS treatment. […] Therefore, a symptomatic therapy with olanzapine (10 mg/day) was started. Analgosedation with sufentanil was switched to hydromorphone to prevent further aggregation of serotonin, and corticosteroids were administered in an attempt to enhance paroxetine elimination by CYP2D6 induction. […] Once vv-ECMO was initiated, CytoSorb™ hemoadsorption could easily be added in an attempt to eliminate paroxetine.

[5] = cited from earlier work; remark: listed apart in the source
[6] = N-acetylcysteine treatment after paracetamol overdose (Prescott regimen); format: in vivo, human; details: 8000 mg paracetamol (160 mg/kg) ingested; e.g. elevated transaminases
Experimental: as §1

[7] = during serotonin syndrome attributed to paroxetine overdose

## Fc1ccc([C@@H]2CCNC[C@H]2COc2ccc3c(c2)OCO3)cc1 [paroxetine]
[1]; after ingestion of 4000 mg paroxetine
  time with paroxetine levels in the lethal dose range: 20 days
[1]; human, serum, oral, day 8 after ingestion of 4000 mg paroxetine (80 mg/kg), multidrug poisoning, one patient
  concentration at 8 day: 3410 ng/mL
[2]; paroxetine poisoning
  complication of poisoning in a previous case report: severe ARDS
[2]; stopped after paroxetine discontinuation
  adverse event with therapeutic intake in one patient: recurrent ARDS
[3]
  critical value of paroxetine level: > 120 ng/mL
  therapeutic range of paroxetine level: 20 to 65 ng/mL
[4]; 4000 mg paroxetine with co-ingested drugs, person
  clinical toxicity after overdose: severe serotonin syndrome complicated by acute respiratory distress syndrome
[4]; 4000 mg paroxetine, despite CytoSorb, corticosteroids, olanzapine 10 mg/day and intensive care
  outcome: the patient died on day 20 postingestion
[4]; 4000 mg paroxetine, persisted until death on day 20
  onset of serotonin syndrome (day after ingestion): 5 days
[4]; [7]
  recurrent fever: up to 39.5 °C
  tachycardia: up to 142 bpm
[4]; during serotonin syndrome attributed to paroxetine overdose, printed 'hypotension up to', catecholamines needed
  hypotension: up to 82/52
[5]; at therapeutic doses
  plasma protein binding: 95%
[5]
  therapeutic half-life: 7 to 37 h
  volume of distribution: 17 L/kg
[5]; poisoning with a dose of 1 g paroxetine
  prolonged half-life in poisoning: 220 h
[5]; poisoning with a dose of 2 g paroxetine
  prolonged half-life in poisoning: 190 h

## CC(=O)N[C@@H](CS)C(=O)O [acetylcysteine, N-acetylcysteine]
[6]
  development of paracetamol poisoning after treatment: no clinically relevant paracetamol poisoning

## COc1ccc(C(CN(C)C)C2(O)CCCCC2)cc1 (stereo not shown) [venlafaxine]
[2]
  adverse events after intentional overdose in a case report: tremors, muscle rigidity, and sustained ankle clonus, followed by ARDS
